Patent publication US11312719B2, “9-substituted amino triazolo quinazoline derivatives as adenosine receptor antagonists, pharmaceutical compositions and their use” (Merck Sharp & Dohme Corp., priority 2018, dated 2022)

What was measured:
human A2A receptors = human A2A receptors (Homo sapiens (Human), UniProt P29274); experiment: A2A antagonism in cAMP cell-based assay (LANCE cAMP, HEK293); conditions: HEK293 cells expressing human A2A receptor
Procedure, shortened: (§1)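 HEK293 cells expressing human A2A or A2B, in HBSS/5 mM HEPES/200 nM rolipram, were preincubated with compound (0.5–10,000 nM, 0.25% DMSO) 30 min at 37° C. Adenosine was then added from 300 nM (A2A) or 600 nM (A2B) solution for 30 min.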

human A2B receptors = human A2B receptors (Homo sapiens (Human), UniProt P29275); experiment: A2B antagonism in cAMP cell-based assay (LANCE cAMP, HEK293); conditions: HEK293 cells expressing human A2B receptor
Procedure, shortened: as §1

human A2B receptors, sequence (P29275 whole entry): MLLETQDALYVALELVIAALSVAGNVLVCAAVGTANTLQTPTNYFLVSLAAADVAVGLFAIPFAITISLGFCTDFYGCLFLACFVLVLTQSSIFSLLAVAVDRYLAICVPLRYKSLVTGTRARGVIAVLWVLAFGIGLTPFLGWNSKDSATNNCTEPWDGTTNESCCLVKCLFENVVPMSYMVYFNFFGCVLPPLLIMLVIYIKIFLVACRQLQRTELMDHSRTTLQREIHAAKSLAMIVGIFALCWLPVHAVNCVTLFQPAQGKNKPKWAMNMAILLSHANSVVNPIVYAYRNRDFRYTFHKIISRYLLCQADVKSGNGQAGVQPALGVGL
human A2A receptors, sequence (P29274 whole entry): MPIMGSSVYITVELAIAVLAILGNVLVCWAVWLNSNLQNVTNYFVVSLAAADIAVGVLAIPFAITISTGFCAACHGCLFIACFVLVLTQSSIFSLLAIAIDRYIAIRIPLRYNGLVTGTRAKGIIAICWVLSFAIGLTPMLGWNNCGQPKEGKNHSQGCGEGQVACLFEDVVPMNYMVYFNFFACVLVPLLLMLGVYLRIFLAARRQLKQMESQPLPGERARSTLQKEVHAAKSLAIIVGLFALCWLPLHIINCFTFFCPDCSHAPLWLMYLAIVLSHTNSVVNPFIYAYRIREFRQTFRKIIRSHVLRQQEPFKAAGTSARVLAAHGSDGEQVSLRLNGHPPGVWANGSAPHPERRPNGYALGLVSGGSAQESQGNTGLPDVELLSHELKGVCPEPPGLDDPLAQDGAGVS

Row | Compound | IC50 (human A2A receptors) [nM] | IC50 (human A2B receptors) [nM] | A2B cAMP % Inh. @10000 nM (human A2B receptors; at 10000 nM) [% Inh.]
1 | COc1cc(F)cc2c1nc(N)n1nc(C3CC(C)CN(c4cnn(CC(C)(C)O)c4C)C3)nc21 (single isomer, unassigned) [Example 173, 1-(4-((3R,5S or 3S,5R)-3-(5-amino-9-fluoro-7-methoxy-[1,2,4]triazolo[1,5-c]quinazolin-2-yl)-5-methylpiperidin-1-yl)-5-methyl-1H-pyrazol-1-yl)-2-methylpropan-2-ol] | 20.7 | 2020 | 
2 | COc1cc2nc(N)n3nc(C4CC(C)CN(c5cn(C(C)(C)CO)nc5C)C4)nc3c2cc1F (racemic) [Example 155, racemic, trans-2-(4-(3-(5-amino-9-fluoro-8-methoxy-[1,2,4]triazolo [1,5-c]quinazolin-2-yl)-5-methylpiperidin-1-yl)-3-methyl-1H-pyrazol-1-yl)-2-methylpropan-1-ol] | 23.9 | 1440 | 
3 | Cc1nn(C(C)(C)CO)cc1N1CC(C)CC(c2nc3c4cc(F)cc(F)c4nc(N)n3n2)C1 (single isomer, unassigned) [Example 177, 2-(4-((3R,5S or 3S,5R)-3-(5-amino-7,9-difluoro-[1,2,4]triazolo[1,5-c]quinazolin-2-yl)-5-methylpiperidin-1-yl)-3-methyl-1H-pyrazol-1-yl)-2-methylpropan-1-ol] | 154 | 3960 | 
4 | Cc1nn(CC(C)(C)O)cc1N1CC(C)CC(c2nc3c4cc(F)cc(F)c4nc(N)n3n2)C1 (single isomer, unassigned) [Example 167, 1-(4-((3R,5S or 3S,5R)-3-(5-amino-7,9-difluoro-[1,2,4]triazolo[1,5-c]quinazolin-2-yl)-5-methylpiperidin-1-yl)-3-methyl-1H-pyrazol-1-yl)-2-methylpropan-2-ol] | 0.6 | 46 | 
5 | CC1CC(c2nc3c4cc(F)cc(F)c4nc(N)n3n2)CN(c2cnn(C(C)(C)CO)c2)C1 (single isomer, unassigned) [Example 179] | 4 | 335 | 

The remaining lines, values ahead:

Row | IC50 (human A2A receptors) [nM] | IC50 (human A2B receptors) [nM] | A2B cAMP % Inh. @10000 nM (human A2B receptors; at 10000 nM) [% Inh.] | Compound
6 | 1 | 6.6 |  | COc1cc2nc(N)n3nc([C@H]4CC[C@@H](C)N(c5cnn([C@@H](C)[C@H](C)O)c5)C4)nc3c2cc1F (single isomer, unassigned) [Example 229, (2S,3S or 2R,3R)-3-(4-((2R,5S or 2S,5R)-5-(5-amino-9-fluoro-8-methoxy-[1,2,4]triazolo[1,5-c]quinazolin-2-yl)-2-methylpiperidin-1-yl)-1H-pyrazol-1-yl)butan-2-ol]
7 | 1.7 | 10 |  | CC1CCC(c2nc3c4cc(F)cc(F)c4nc(N)n3n2)CN1c1cnn(CC(C)(CO)CO)c1 (single isomer, unassigned) [Example 260]
8 | 2 | 90.6 |  | CCC(C)(O)Cn1cc(N2CCC[C@@H](c3nc4c5cc(F)c(OC)cc5nc(N)n4n3)C2)cn1 (single isomer, unassigned) [Example 183, (R or S)-1-(4-((R)-3-(5-amino-9-fluoro-8-methoxy-[1,2,4]triazolo[1,5-c]quinazolin-2-yl)piperidin-1-yl)-1H-pyrazol-1-yl)-2-methylbutan-2-ol]
9 | 75.1 |  | 10 | COc1cc2nc(N)n3nc(C4CCC(C)N(c5cnn(C(C)C(C)O)c5)C4)nc3c2cc1F (single isomer, unassigned) [Example 239, (2R,3S or 2S,3R)-3-(4-((2R,5S or 2S,5R)-5-(5-amino-9-fluoro-8-methoxy-[1,2,4]triazolo[1,5-c]quinazolin-2-yl)-2-methylpiperidin-1-yl)-1H-pyrazol-1-yl)butan-2-ol]
10 | 2 | 34.9 |  | COc1cc2nc(N)n3nc([C@@H]4CCCN(c5cnn(C(C)(C)C(C)O)c5)C4)nc3c2cc1F (single isomer, unassigned) [Example 242, (R or S)-3-(4-((R)-3-(5-amino-9-fluoro-8-methoxy-[1,2,4]triazolo[1,5-c]quinazolin-2-yl)piperidin-1-yl)-1H-pyrazol-1-yl)-3-methylbutan-2-ol]
11 | 241 | 3890 |  | CC1CCC(c2nc3c4cc(F)cc(F)c4nc(N)n3n2)CN1c1cnn(CC(C)(O)CO)c1 (single isomer, unassigned) [Example 256]
